Data reported in publication PMC6535718 (Journal of the American Chemical Society, 2019).
Read-outs that look alike come from different tables or passages of the source.

Key:
P. aeruginosa PAO1 = assay: Effect of analogs on the potency of fluoroquinolone antibiotics, strain PAO1; type: cell-based, Pseudomonas aeruginosa; details: PAO1, ciprofloxacin 0.25 μg/mL, 18 h, M63 + 4 μM Fe
P. aeruginosa = details: cited from earlier work
[1] = fluoroquinolone at the reported MIC, Figure 9 legend

| Structure (SMILES) | % survival relative to untreated control, ciprofloxacin only (P. aeruginosa PAO1) | reported MIC (P. aeruginosa) | reported MIC (P. aeruginosa; [1]) |
| --- | --- | --- | --- |
| O=C(O)c1cn(C2CC2)c2cc(N3CCNCC3)c(F)cc2c1=O [ciprofloxacin] | approximately 10% | 0.25 µg/mL | – |
| C[C@H]1COc2c(N3CCN(C)CC3)c(F)cc3c(=O)c(C(=O)O)cn1c23 [levofloxacin] | – | – | 0.5 µg/mL |
| CCn1cc(C(=O)O)c(=O)c2cc(F)c(N3CCNCC3)cc21 [norfloxacin] | – | – | 0.9 µg/mL |
